Laboratory results reported in patent US10670605B2, “Cysteine reactive probes and uses thereof” (The Scripps Research Institute, priority 2015, dated 2020).
Blank lines part the entries; values can stand above or below the molecule they belong to.

Legend:
Test in all cases: Competitive isoTOP-ABPP in situ (fragment-treated cells)
Format in all cases: cell-based
[1] = target: cysteines in MDA-MB-231 and Ramos cells (Homo sapiens, UniProt P04818); settings: for isoTOP-ABPP ratio P04818_C199: 200 μM, insitu
[2] = target: T1, cysteines in MDA-MB-231 and Ramos cells (Homo sapiens, UniProt P55265); settings: 200 μM, insitu
T1 sequence (P55265 1-1226): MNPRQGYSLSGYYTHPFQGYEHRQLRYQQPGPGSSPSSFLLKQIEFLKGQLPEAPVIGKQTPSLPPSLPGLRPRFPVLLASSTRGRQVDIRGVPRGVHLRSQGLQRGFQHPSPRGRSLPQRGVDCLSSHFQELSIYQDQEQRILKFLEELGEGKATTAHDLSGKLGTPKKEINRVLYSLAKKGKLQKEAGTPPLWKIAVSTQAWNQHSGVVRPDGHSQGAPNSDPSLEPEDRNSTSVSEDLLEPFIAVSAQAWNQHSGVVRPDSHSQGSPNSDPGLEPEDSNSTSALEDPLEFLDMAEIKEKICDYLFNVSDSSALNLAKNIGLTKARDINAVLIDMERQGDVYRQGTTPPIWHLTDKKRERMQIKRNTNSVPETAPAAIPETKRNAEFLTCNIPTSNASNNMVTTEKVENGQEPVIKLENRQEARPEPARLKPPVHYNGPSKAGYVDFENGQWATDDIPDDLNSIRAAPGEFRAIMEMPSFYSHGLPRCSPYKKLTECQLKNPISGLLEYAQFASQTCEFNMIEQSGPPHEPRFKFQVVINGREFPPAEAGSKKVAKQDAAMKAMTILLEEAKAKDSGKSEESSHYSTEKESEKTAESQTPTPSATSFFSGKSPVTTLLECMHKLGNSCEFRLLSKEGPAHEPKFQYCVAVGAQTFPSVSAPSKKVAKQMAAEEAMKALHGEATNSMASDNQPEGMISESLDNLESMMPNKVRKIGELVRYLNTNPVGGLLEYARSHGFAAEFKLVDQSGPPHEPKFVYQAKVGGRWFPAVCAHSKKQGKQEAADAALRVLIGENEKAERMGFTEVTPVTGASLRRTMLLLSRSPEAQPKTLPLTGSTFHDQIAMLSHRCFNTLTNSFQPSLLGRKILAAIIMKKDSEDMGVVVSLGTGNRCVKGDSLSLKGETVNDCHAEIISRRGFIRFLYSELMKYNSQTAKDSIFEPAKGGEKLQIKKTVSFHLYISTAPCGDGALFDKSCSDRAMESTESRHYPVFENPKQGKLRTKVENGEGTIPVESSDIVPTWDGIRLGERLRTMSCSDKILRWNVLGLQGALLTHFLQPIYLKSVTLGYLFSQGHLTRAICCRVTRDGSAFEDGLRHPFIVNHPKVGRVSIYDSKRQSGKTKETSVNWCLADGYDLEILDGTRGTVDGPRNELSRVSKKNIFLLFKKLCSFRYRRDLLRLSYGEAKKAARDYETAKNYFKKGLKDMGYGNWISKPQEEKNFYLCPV

[3] = target: cysteines in MDA-MB-231 and Ramos cells (Homo sapiens, UniProt Q14790); settings: for isoTOP-ABPP ratio Q14790_C360: 200 μM, insitu
[4] = target: T2, cysteines in MDA-MB-231 and Ramos cells (Homo sapiens, UniProt Q15013)
T2 sequence (Q15013 1-274): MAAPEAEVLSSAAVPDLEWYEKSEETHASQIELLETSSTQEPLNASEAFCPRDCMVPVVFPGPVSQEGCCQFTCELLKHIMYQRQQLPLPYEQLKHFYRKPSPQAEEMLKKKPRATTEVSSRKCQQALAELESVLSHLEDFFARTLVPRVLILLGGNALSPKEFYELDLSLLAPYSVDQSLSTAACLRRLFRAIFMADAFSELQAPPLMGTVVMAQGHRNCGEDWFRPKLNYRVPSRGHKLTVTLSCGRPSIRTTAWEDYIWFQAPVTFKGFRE

[5] = target: T3, cysteines in MDA-MB-231 and Ramos cells (Homo sapiens, UniProt Q8NFH5); settings: for isoTOP-ABPP ratio Q8NFH5_C255: 200 μM, insitu
T3 sequence (Q8NFH5 1-326): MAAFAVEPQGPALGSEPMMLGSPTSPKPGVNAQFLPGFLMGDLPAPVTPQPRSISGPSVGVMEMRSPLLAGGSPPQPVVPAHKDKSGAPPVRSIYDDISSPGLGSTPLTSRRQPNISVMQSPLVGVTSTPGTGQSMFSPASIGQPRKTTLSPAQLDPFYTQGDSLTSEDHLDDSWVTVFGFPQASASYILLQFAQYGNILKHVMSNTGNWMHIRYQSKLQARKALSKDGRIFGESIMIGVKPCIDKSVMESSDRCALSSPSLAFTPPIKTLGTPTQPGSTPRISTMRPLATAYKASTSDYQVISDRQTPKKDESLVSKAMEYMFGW

[6] = target: T4, cysteines in MDA-MB-231 and Ramos cells (Homo sapiens, UniProt Q9NRW3); settings: for isoTOP-ABPP ratio Q9NRW3_C130: 200 μM, insitu
T4 sequence (Q9NRW3 1-190): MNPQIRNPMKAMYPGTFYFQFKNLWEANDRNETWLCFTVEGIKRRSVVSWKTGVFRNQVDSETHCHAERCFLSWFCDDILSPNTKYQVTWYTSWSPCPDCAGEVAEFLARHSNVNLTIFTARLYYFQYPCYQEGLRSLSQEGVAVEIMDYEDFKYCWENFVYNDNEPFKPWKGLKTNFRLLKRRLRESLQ

[7] = target: T5, cysteines in MDA-MB-231 and Ramos cells (Homo sapiens, UniProt Q9Y5Y2); settings: 200 μM, insitu
T5 sequence (Q9Y5Y2 1-271): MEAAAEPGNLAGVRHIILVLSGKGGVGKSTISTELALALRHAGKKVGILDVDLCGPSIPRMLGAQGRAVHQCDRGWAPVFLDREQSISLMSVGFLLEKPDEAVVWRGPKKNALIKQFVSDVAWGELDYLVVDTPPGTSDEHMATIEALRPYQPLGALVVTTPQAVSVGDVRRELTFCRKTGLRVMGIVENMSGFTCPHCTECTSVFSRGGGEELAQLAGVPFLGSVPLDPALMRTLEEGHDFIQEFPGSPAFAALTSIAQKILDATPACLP

[8] = target: cysteines in MDA-MB-231 and Ramos cells (Homo sapiens, UniProt P45984)
[9] = target: T6, cysteines in MDA-MB-231 and Ramos cells (Homo sapiens, UniProt Q9NWA0)
T6 sequence (Q9NWA0 1-146): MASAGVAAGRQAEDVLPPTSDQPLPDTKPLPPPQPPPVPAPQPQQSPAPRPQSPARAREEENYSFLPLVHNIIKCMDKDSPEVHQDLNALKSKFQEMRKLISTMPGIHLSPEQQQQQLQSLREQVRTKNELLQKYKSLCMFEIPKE

Chain of cysteines in MDA-MB-231 and Ramos cells (Homo sapiens, UniProt P04818) (P04818 whole entry): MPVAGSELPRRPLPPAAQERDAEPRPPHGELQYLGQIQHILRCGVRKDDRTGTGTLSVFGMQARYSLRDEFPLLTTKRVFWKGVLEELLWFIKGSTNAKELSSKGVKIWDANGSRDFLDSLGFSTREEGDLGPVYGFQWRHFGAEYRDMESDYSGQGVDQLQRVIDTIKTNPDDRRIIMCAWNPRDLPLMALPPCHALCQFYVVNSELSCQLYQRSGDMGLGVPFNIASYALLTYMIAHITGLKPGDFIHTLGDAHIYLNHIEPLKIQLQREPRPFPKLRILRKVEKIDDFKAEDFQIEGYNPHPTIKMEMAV
Chain of cysteines in MDA-MB-231 and Ramos cells (Homo sapiens, UniProt Q14790) (Q14790 217-479): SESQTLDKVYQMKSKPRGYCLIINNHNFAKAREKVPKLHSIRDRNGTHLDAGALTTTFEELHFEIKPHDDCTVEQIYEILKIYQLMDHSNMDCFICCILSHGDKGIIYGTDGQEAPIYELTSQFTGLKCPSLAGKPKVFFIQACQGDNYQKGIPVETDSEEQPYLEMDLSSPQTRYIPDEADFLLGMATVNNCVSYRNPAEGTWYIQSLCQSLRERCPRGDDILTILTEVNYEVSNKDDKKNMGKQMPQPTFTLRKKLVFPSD
Chain of cysteines in MDA-MB-231 and Ramos cells (Homo sapiens, UniProt P45984) (P45984 whole entry): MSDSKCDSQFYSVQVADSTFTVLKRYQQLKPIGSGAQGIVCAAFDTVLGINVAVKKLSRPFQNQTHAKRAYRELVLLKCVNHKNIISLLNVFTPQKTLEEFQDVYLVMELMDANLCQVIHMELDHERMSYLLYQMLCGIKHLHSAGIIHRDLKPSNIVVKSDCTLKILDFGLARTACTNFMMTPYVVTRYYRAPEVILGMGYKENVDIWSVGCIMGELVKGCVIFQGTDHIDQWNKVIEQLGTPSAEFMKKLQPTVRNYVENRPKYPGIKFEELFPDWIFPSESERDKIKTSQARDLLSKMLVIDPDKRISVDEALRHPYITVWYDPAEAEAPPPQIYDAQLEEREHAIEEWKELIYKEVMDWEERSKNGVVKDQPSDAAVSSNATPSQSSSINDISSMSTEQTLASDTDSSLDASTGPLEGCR

isoTOP-ABPP ratio P04818_C199 [1]; 231: 20.0
isoTOP-ABPP ratio P55265_C1224 [2]; 231: 20.0
isoTOP-ABPP ratio Q14790_C360 [3]; 231: 20.0
isoTOP-ABPP ratio Q15013_C124 ([4]; 200 μM, insitu, 231): 20.0
isoTOP-ABPP ratio Q8NFH5_C255 [5]; 231: 5.5
isoTOP-ABPP ratio Q9NRW3_C130 [6]; 231: 20.0
Compound: CC1CCc2ccccc2N1C(=O)CCl (stereo not shown) [compound 45]

isoTOP-ABPP ratio P04818_C199 [1]; 231: 20.0
isoTOP-ABPP ratio P55265_C1224 [2]; 231: 1.3
isoTOP-ABPP ratio Q15013_C124 ([4]; 200 μM, insitu, 231): 1.2
Compound: O=C(CCl)Nc1cccc2ncccc12 [compound 51]

isoTOP-ABPP ratio P04818_C199 [1]; 231: 20.0
isoTOP-ABPP ratio Q14790_C360 [3]; 231: 1.0
isoTOP-ABPP ratio Q8NFH5_C255 [5]; 231: 1.1
isoTOP-ABPP ratio Q9Y5Y2_C72 [7]; 231: 1.7
Compound: C=CC(=O)Nc1cc(F)c(N2CCN(C(=O)OC(C)(C)C)CC2)c(F)c1 [compound 38]

isoTOP-ABPP reactivity P45984_C177 MAPK9 ([8]; 200 μM, insitu, 231): 20.0
isoTOP-ABPP reactivity Q15013_C124 MAD2L1BP ([4]; 200 μM, insitu, 231): 5.4
Compound: COc1cc2c(cc1OC)CN(C(=O)CCl)CC2 [compound 8]

isoTOP-ABPP ratio Q14790_C360 [3]; 231: 0.5
Compound: C=CC(=O)N(Cc1cccnc1)c1cc(C(F)(F)F)cc(C(F)(F)F)c1 [compound 31]

isoTOP-ABPP ratio, cysteine P55265_C1224 [2]; 231: 1.9
isoTOP-ABPP ratio Q14790_C360 [3]; 231: 1.2
isoTOP-ABPP ratio Q8NFH5_C255 [5]; 231: 1.5
isoTOP-ABPP ratio, cysteine Q9NWA0_C139 ([9]; 200 μM, insitu, 231): 1.1
isoTOP-ABPP ratio, cysteine Q9Y5Y2_C72 ([7]; ramos): 1.5
Compound: O=C(CCl)NCCc1c[nH]c2ccccc12 [compound 13]

isoTOP-ABPP reactivity Q9Y5Y2_C72 NUBP2 [7]; 231: 4.0
Compound: O=C(CCl)N1CCC(Cc2ccccc2)CC1 [compound 9]

isoTOP-ABPP reactivity P04818_C199 TYMS ([1]; 100 μM in situ 231): 20.0
isoTOP-ABPP reactivity P45984_C177 MAPK9 ([8]; 100 μM in situ 231): 12.0
isoTOP-ABPP reactivity Q14790_C360 CASP8 ([3]; 100 μM in situ 231): 20.0
isoTOP-ABPP reactivity Q15013_C124 MAD2L1BP ([4]; 100 μM in situ 231): 13.0
isoTOP-ABPP reactivity Q8NFH5_C255 NUP35 ([5]; 100 μM in situ 231): 3.9
isoTOP-ABPP reactivity Q9NRW3_C130 APOBEC3C ([6]; 100 μM in situ 231): 20.0
isoTOP-ABPP reactivity Q9NWA0_0139 MED9 ([9]; 100 μM in situ 231): 14
Compound: COc1ccc(C2CC(c3cccs3)=NN2C(=O)CCl)cc1 (stereo not shown) [compound 4]

isoTOP-ABPP ratio P04818_C199 ([1]; ramos): 2.5
isoTOP-ABPP ratio P45984_C177 ([8]; 200 μM, insitu, ramos): 1.7
isoTOP-ABPP ratio P55265_C1224 ([2]; ramos): 1.8
isoTOP-ABPP ratio Q14790_C360 ([3]; ramos): 1.6
isoTOP-ABPP ratio Q8NFH5_C255 ([5]; ramos): 1.6
isoTOP-ABPP ratio Q9NRW3_C130 ([6]; ramos): 13.3
isoTOP-ABPP ratio Q9NWA0_C139 ([9]; 200 μM, insitu, ramos): 0.7
isoTOP-ABPP ratio Q9Y5Y2_C72 ([7]; ramos): 1.1
Compound: O=C(CCl)N1CCN(CC(=O)N2CCOCC2)CC1 [compound 29]
